# Laboratory results published in ChEMBL document CHEMBL6177928, “Probing structural requirements for thiazole-based mimetics of sunitinib as potent VEGFR-2 inhibitors” (RSC Med Chem, 2025).
# Calls of active or inactive are those of the source. No cut-off for these calls is given here.
# Experiments:
# HepG2 = experiment: cells; settings: Homo sapiens, HepG2, 48 h
# Description: Antitumor activity against human HepG2 cells assessed as inhibition of cell viability incubated for 48 hrs by MTT assay
# HCT-116 [1] = experiment: cells; settings: Homo sapiens, HCT-116, 48 h
# Description: Antitumor activity against human HCT-116 cells assessed as inhibition of cell viability incubated for 48 hrs by MTT assay
# MCF7 [2] = experiment: cells; settings: Homo sapiens, MCF7, 48 h
# Description: Antitumor activity against human MCF7 cells assessed as inhibition of cell viability incubated for 48 hrs by MTT assay
# HEp-2 = experiment: cells; settings: Homo sapiens, HEp-2, 48 h
# Description: Antitumor activity against human HEp-2 cells assessed as inhibition of cell viability incubated for 48 hrs by MTT assay
# HeLa [3] = experiment: cells; settings: Homo sapiens, 48 h
# Description: Antitumor activity against human HeLa cells assessed as inhibition of cell viability incubated for 48 hrs by MTT assay
# [4] = Cytotoxicity against human WI-38 cells incubated for 48 hrs by MTT assay; assay type: toxicity, cell-based
# [5] = Cytotoxicity against human WISH cells incubated for 48 hrs by MTT assay; assay type: toxicity, cell-based
# WI-38 = experiment: Cytotoxicity against human WI-38 cells up to 50 uM incubated for 48 hrs by MTT assay; assay type: toxicity, cell-based; settings: wi-38, 48 h
# WISH = experiment: Cytotoxicity against human WISH cells at up to 50 uM incubated for 48 hrs by MTT assay; assay type: toxicity, cell-based
# HCT-116 [6] = experiment: Induction of cell cycle arrest in human HCT-116 cells assessed as accumulation of cells at G1 phase measured after 24 hrs by PI/Rnase staining based flow cytometry analysis (reference value: 47.28%); assay type: functional
# HCT-116 [7] = experiment: Induction of cell cycle arrest in human HCT-116 cells assessed as accumulation of cells at G2/M phase measured after 24 hrs by PI/Rnase staining based flow cytometry analysis (reference value: 17.66 %); assay type: functional
# HCT-116 [8] = experiment: Induction of cell cycle arrest in human HCT-116 cells assessed as accumulation of cells at S phase measured after 24 hrs by PI/Rnase staining based flow cytometry analysis (reference value: 17.66 %); assay type: functional
# MCF7 [9] = experiment: Induction of cell cycle arrest in human MCF7 cells assessed as accumulation of cells at G1 phase measured after 24 hrs by PI/Rnase staining based flow cytometry analysis (reference value: 56.37%); assay type: functional
# MCF7 [10] = experiment: Induction of cell cycle arrest in human MCF7 cells assessed as accumulation of cells at G2/M phase measured after 24 hrs by PI/Rnase staining based flow cytometry analysis (reference value: 14.86 %); assay type: functional
# MCF7 [11] = experiment: Induction of cell cycle arrest in human MCF7 cells assessed as accumulation of cells at S phase measured after 24 hrs by PI/Rnase staining based flow cytometry analysis (reference value: 28.77 %); assay type: functional
# HeLa [12] = experiment: Induction of cell cycle arrest in human HeLa cells assessed as accumulation of cells at G1 phase measured after 24 hrs by PI/Rnase staining based flow cytometry analysis (reference value: 52.69 %); assay type: functional
# HeLa [13] = experiment: Induction of cell cycle arrest in human HeLa cells assessed as accumulation of cells at G2/M phase measured after 24 hrs by PI/Rnase staining based flow cytometry analysis (reference value: 16.27 %); assay type: functional
# HeLa [14] = experiment: Induction of cell cycle arrest in human HeLa cells assessed as accumulation of cells at S phase measured after 24 hrs by PI/Rnase staining based flow cytometry analysis (reference value: 31.04 %); assay type: functional
# HCT-116 [15] = experiment: Induction of cell cycle arrest in human HCT-116 cells assessed as accumulation of cell debris measured after 24 hrs by PI/Rnase staining based flow cytometry analysis (reference value: 1.33%); assay type: functional
# MCF7 [16] = experiment: Induction of cell cycle arrest in human MCF7 cells assessed as accumulation of cell debris measured after 24 hrs by PI/Rnase staining based flow cytometry analysis (reference value: 1.61%); assay type: functional
# HeLa [17] = experiment: Induction of cell cycle arrest in human HeLa cells assessed as accumulation of cell debris measured after 24 hrs by PI/Rnase staining based flow cytometry analysis (reference value: 1.33%); assay type: functional
# HCT-116 [18] = experiment: Induction of apoptosis in human HCT-116 cells assessed as early apoptotic cells incubated for 24 hrs by Annexin-V-FITC/PI staining based flow cytometry analysis (reference value: 0.44%); assay type: functional
# HCT-116 [19] = experiment: Induction of apoptosis in human HCT-116 cells assessed as late apoptotic cells incubated for 24 hrs by Annexin-V-FITC/PI staining based flow cytometry analysis (reference value: 0.16%); assay type: functional
# HCT-116 [20] = experiment: Induction of apoptosis in human HCT-116 cells assessed as necrotic cells incubated for 24 hrs by Annexin-V-FITC/PI staining based flow cytometry analysis (reference value: 1.34%); assay type: functional
# MCF7 [21] = experiment: Induction of apoptosis in human MCF7 cells assessed as early apoptotic cells incubated for 24 hrs by Annexin-V-FITC/PI staining based flow cytometry analysis (reference value: 0.51%); assay type: functional
# MCF7 [22] = experiment: Induction of apoptosis in human MCF7 cells assessed as late apoptotic cells incubated for 24 hrs by Annexin-V-FITC/PI staining based flow cytometry analysis (reference value: 0.21%); assay type: functional
# MCF7 [23] = experiment: Induction of apoptosis in human MCF7 cells assessed as necrotic cells incubated for 24 hrs by Annexin-V-FITC/PI staining based flow cytometry analysis (reference value: 1.57%); assay type: functional
# HeLa [24] = experiment: Induction of apoptosis in human HeLa cells assessed as early apoptotic cells incubated for 24 hrs by Annexin-V-FITC/PI staining based flow cytometry analysis (reference value: 0.41 %); assay type: functional
# HeLa [25] = experiment: Induction of apoptosis in human HeLa cells assessed as late apoptotic cells incubated for 24 hrs by Annexin-V-FITC/PI staining based flow cytometry analysis (reference value: 0.13 %); assay type: functional
# HeLa [26] = experiment: Induction of apoptosis in human HeLa cells assessed as necrotic cells incubated for 24 hrs by Annexin-V-FITC/PI staining based flow cytometry analysis (reference value: 1.12 %); assay type: functional
# Ehrlich [27] = experiment: Antitumor activity against mouse EAC cells xenografted in Swiss albino mouse assessed as reduction in tumor volume at 10 mg/kg, ip measured after 5 to 20 days; assay type: functional, organism-based; settings: time 5-20 day
# Ehrlich [28] = experiment: Antitumor activity against mouse EAC cells xenografted in Swiss albino mouse assessed as tumor growth inhibition at 10 mg/kg, ip measured after 10 to 20 days; assay type: functional; settings: read-out: TGI, time 10-20 day
smiles,measurement,setting,value
CN1CCN(CC(=O)Nc2nc(Nc3ccccc3)sc2C#N)CC1,IC50,HepG2,73.2 µM
same,IC50,HCT-116 [1],70.5 µM
same,IC50,MCF7 [2],52.7 µM
same,IC50,HEp-2,94.7 µM
same,IC50,HeLa [3],67.8 µM
CC(=O)N1CCN(CC(=O)Nc2nc(Nc3ccccc3)sc2C#N)CC1,IC50,HepG2,78.4 µM
same,IC50,HCT-116 [1],65.2 µM
same,IC50,MCF7 [2],61.9 µM
same,IC50,HEp-2,89 µM
same,IC50,HeLa [3],74.5 µM
N#Cc1sc(Nc2ccccc2)nc1NC(=O)CNNCc1ccc([N+](=O)[O-])cc1,IC50,HepG2,35.8 µM
same,IC50,HCT-116 [1],29.3 µM
same,IC50,MCF7 [2],26.2 µM
same,IC50,HEp-2,43.6 µM
same,IC50,HeLa [3],33.3 µM
N#Cc1sc(Nc2ccccc2)nc1NC(=O)CNNCC(=O)c1cc2ccccc2oc1=O,IC50,HepG2,49.4 µM
same,IC50,HCT-116 [1],37.6 µM
same,IC50,MCF7 [2],34.1 µM
same,IC50,HEp-2,67.2 µM
same,IC50,HeLa [3],45.5 µM
N#Cc1sc(Nc2ccccc2)nc1NC(=O)CNNC(=O)c1ccccc1,IC50,HepG2,74.3 µM
same,IC50,HCT-116 [1],68.6 µM
same,IC50,MCF7 [2],50.4 µM
same,IC50,HEp-2,92.2 µM
same,IC50,HeLa [3],69.8 µM
N#Cc1sc(Nc2ccccc2)nc1NC(=O)CNNCC(=O)c1ccc(Cl)cc1,IC50 at 48 h,[4],60.8 µM
same,IC50 at 48 h,[5],77.2 µM
same,Activity,WI-38,Non-toxic
same,Activity,WISH,Non-toxic
same,Activity,HCT-116 [6],51.96%
same,Activity,HCT-116 [7],16.05%
same,Activity,HCT-116 [8],31.99%
same,Activity,MCF7 [9],63.61%
same,Activity,MCF7 [10],12.55%
same,Activity,MCF7 [11],23.84%
same,Activity,HeLa [12],43.64%
same,Activity,HeLa [13],15.23%
same,Activity,HeLa [14],41.19%
same,Activity,HCT-116 [15],2.25%
same,Activity,MCF7 [16],1.58%
same,Activity,HeLa [17],2.17%
same,Activity,HCT-116 [18],21.42%
same,Activity,HCT-116 [19],8.29%
same,Activity,HCT-116 [20],2.2%
same,Activity,MCF7 [21],6.22%
same,Activity,MCF7 [22],19.17%
same,Activity,MCF7 [23],4.47%
same,Activity,HeLa [24],19.17%
same,Activity,HeLa [25],12.35%
same,Activity,HeLa [26],2.66%
same,Activity,Ehrlich [27],Active
same,inhibition in vivo at 10 mg/kg,Ehrlich [28],> 50%
same,IC50,HepG2,15.2 µM
same,IC50,HCT-116 [1],11.6 µM
same,IC50,MCF7 [2],13.3 µM
same,IC50,HEp-2,26.9 µM
same,IC50,HeLa [3],10.6 µM
N#Cc1sc(Nc2ccccc2)nc1NC(=O)CNNCC(=O)c1ccccc1,IC50,HepG2,52.3 µM
same,IC50,HCT-116 [1],36.5 µM
same,IC50,MCF7 [2],39 µM
same,IC50,HEp-2,64.7 µM
same,IC50,HeLa [3],47 µM
N#Cc1sc(Nc2ccccc2)nc1NC(=O)CNNC(=O)c1ccc(Cl)cc1,IC50,HepG2,89.9 µM
same,IC50,HCT-116 [1],91.9 µM
same,IC50,MCF7 [2],64.8 µM
same,IC50,HEp-2,> 100 µM
same,IC50,HeLa [3],86.8 µM
N#Cc1sc(Nc2ccccc2)nc1NC(=O)CN1CCOCC1,IC50,HepG2,38.5 µM
same,IC50,HCT-116 [1],31.1 µM
same,IC50,MCF7 [2],33.5 µM
same,IC50,HEp-2,45.8 µM
same,IC50,HeLa [3],36.7 µM
CCN(CC)CCNC(=O)c1c(C)[nH]c(/C=C2\C(=O)Nc3ccc(F)cc32)c1C [SUNITINIB],IC50,HepG2,12.3 µM
same,IC50,HCT-116 [1],8.53 µM
same,IC50,MCF7 [2],5.19 µM
same,IC50,HEp-2,7.58 µM
same,IC50,HeLa [3],7.48 µM
COc1cccc2c1C(=O)c1c(O)c3c(c(O)c1C2=O)C[C@@](O)(C(=O)CO)C[C@@H]3O[C@H]1C[C@H](N)[C@H](O)[C@H](C)O1 [DOXORUBICIN],IC50 at 48 h,[5],3.34 µM
same,Activity,WI-38,Non-toxic
same,Activity,WISH,Non-toxic
N#Cc1sc(Nc2ccccc2)nc1NC(=O)CN1CCCCC1,IC50 at 48 h,[4],23.7 µM
same,IC50 at 48 h,[5],21.2 µM
same,Activity,WI-38,Non-toxic
same,Activity,WISH,Non-toxic
same,IC50,HepG2,30.5 µM
same,IC50,HCT-116 [1],14.2 µM
same,IC50,MCF7 [2],16.7 µM
same,IC50,HEp-2,28.8 µM
same,IC50,HeLa [3],22.8 µM
